This note sets out measurements from patent US11446342B2, “Composite probiotics and use thereof” (INFINITUS (CHINA) COMPANY LTD., priority 2019, dated 2022).

Assay [1] concerns mice having high-fat diet induced metabolic syndrome. Description: Liver glutathione (GSH) in high-fat diet-induced metabolic syndrome. Type of assay: in vivo, C57BL/6J mice. As to conditions: intragastric daily, high-fat feed; probiotics total 1.0×10^9 CFU/mL. Here is the method:
(§1) The experimental animals were 48 5-week old SPF grade C57BL/6 male mice, which were purchased from Shanghai Slack Laboratory Animal Center. The high-fat feed was purchased from Nantong Trophic Animal Feed High-tech Co., Ltd. The model group was fed with TP23300 high-fat feed, and the normal control group was fed with TP23302 control feed. After the mice were adaptively feed for 7 days, the experiment started. The animals were given free access to food and water, the temperature was 22±2° C., the humidity was 55±5%, and the illumination was alternately 12 h bright and dark.
(§2) Each group contains 6 mice. The feeding environmental temperature was 20-26° C., the humidity was 40%-70% and the padding was replaced twice a week. In the Bifidobacterium adolescentis CCFM8630, Lactobacillus reuteri CCFM8631, Lactobacillus rhamnosus CCFM1044 and Lactobacillus casei CCFM711 compounding group, the ratio of viable count of Bifidobacterium adolescentis CCFM8630, Lactobacillus reuteri CCFM8631, Lactobacillus rhamnosus CCFM1044 and Lactobacillus casei CCFM711 was 1:1:1:1. Each mouse was administered intragastrically each day with probiotics with a concentration of 1.0×10^9 CFU/mL, which was resuspended in 3% sucrose solution, and the volume by intragastric administration was 0.2 mL, i.e., the total amount of probiotics administered intragastrically to each mouse was 2×10^8 CFU each day. […]

The test system is the same in assay [2]. Description: Liver superoxide dismutase (SOD) in high-fat diet-induced metabolic syndrome. Type of assay: in vivo, C57BL/6J mice. Conditions: intragastric daily, high-fat feed; probiotics total 1.0×10^9 CFU/mL. Here is the method: as §1, §2

For `CN(CCOc1ccc(CC2SC(=O)NC2=O)cc1)c1ccccn1` (centres unmarked) [RH, rosiglitazone], in assay [1], the “extent of increase of liver GSH level compared with the HF group” value was determined as 6.88 μmoL/g prot. In addition, the “extent of increase of liver SOD activity compared with the HF group” value in assay [2] amounted to 70.07 U/mg prot.
